Measurements: patent US20060078502A1, “Charge neutral complexes of paramagnetic metals as intracellular magnetic resonance imaging contrast agents” (priority 2004, published 2006)

Columns and labels:
[1] = tested on: plasma lipoproteins (VLDL, LDL and HDL); assay: Kinetics of gadolinium complex binding to plasma lipoproteins; type: in vitro ADME; details: Gd-153 labeled, 60 minutes at room temperature, density gradient separation
Method: For this study, the galadolinium pyrithione complex labeled with Gd-153 was incubated directly with isolated lipoprotein particles in acetate-citrate buffer or was incubated with intact plasma for 60 minutes at room temperature. Very low, low and high-density lipoproteins (VLDL, LDL and HDL) were separated by cesium chloride density gradients (1.06 and 1.25 g/ml) in an ultracentrifuge (Beckman L8-55) in a swinging bucket rotor using standard protocols. The mixture in 4.5 ml in polyallomer tubes was spun at 210,000 g for 20 hours. The plasma proteins in the […], and layers representing each of VLDL, LDL and HDL were removed from the top of the tube by suction. The amount of gadolinium pyrithione bound to VLDL, LDL, HDL and plasma proteins was measured by counting the radioactivity in each fraction with the gamma well counter. The majority of gadolinium complexes were bound to lipoproteins. Accordingly, the gadolinium-tagged lipoprotein particles are useful to localize the sites of vulnerable plaques in patients, thus identifying the rupture-prone vulnerable plaques in the coronary or carotid arteries with MRI.

C3H mouse = assay: MRI processing and imaging of a mouse after intravenous administration; type: in vivo
Source text: A Bruker 7.0 Tesla MRI System (BioSpin MRI Gmbh, Avance) operated at 300 MHz was used in this study. The system parameters are optimized for high resolution imaging with either T1-weighted (Gd-complexes) or T2-weighted agents (Fe-complexes). The mouse was placed on a stereotactic holder with a prone position. The holder stayed in the center of the 32 mm bore of the transmitter-receiver RF coil. The tail-vein was cannulated with a 27-29 G needle for delivery of contrast agents via slow infusion. 0.2 ml of 6 μM of the gadolium pyrithione complex was administered per dose. Two doses were administered 27 minutes apart. After acquisition of scout images, T1-weighted data were acquired with a spoiled gradient echo sequence, T1=100 to 700 ms, for example, 200 ms, TR (repetition time)=10 to 500 ms, for example, 13 ms, TE (echo time)=5 to 10 ms, for example, 6 ms, and flip angle=60-90 degree. Data were acquired before and after injection of contrast media to evaluate the reduction of tissue T1-values from 500-700 ms to 100-200 ms with the Gd-complexes or Gd-tagged cells.
FIG. 1 presents a T1-weighted MR image (coronal slice, 1 mm thickness) of the C3H mouse at 3 minutes after the second intravenous administration of Gd-(tris)pyrithione complex, providing an image at 3 and 30 minutes post administration. […] The conclusion that the complex is stable is reached because, unstable Gd-complexes hydrolyze and Gd-colloids form and localize in the macrophage pool of reticuloendothelial system of liver, spleen and bone marrow.

[2] = Storage stability of the complex (solution formulation, lyophilized); type: physicochemical; details: after one year of storage in the refrigerator; acetate-dextrose buffer, pH 6.4
Method: The contrast agent of the invention can be packaged into kit form. Conveniently, the complexes are formed as described herein, sterilized, filled into sterile bottles and then freeze-dried (lyophilized). The lyophilized complex is stable when stored for at least one year at 4° C. The lyophilized complex is reconstituted in acetate buffer (about 0.2 M NaOAc, pH 6.0 to 6.4) to the desired concentration for injection for use.
Fifty microliters of the gadolinium chloride solution is mixed with 250-400 microliters of the pyrithione solution. A white precipitate of gadolinium pyrithione complex is formed, which is vortexed for good mixing. The gadolinium pyrithione complex is dissolved in 1250 microliters of 0.2 molar acetate-dextrose buffer. The final pH is adjusted to 6.4 with a pH electrode (Beckman-Coulter). The osmolarity of the solution is checked by the freezing point method to 275 mOsmole. The gadolinium pyrithione complex solution is sterilized by membrane filtration (0.22 micrometer filter) and stored in a refrigerator.
(§1) This formulation is found to be stable after one year of storage in the refrigerator. It is soluble in 0.2 molar acetate buffer, in a mixture of acetate buffer and saline or human plasma facilitating the storage of Gd-complex, its transport and control of reconstitution by adjustment of injectate volume, and its use in cell-tagging and administration of tagged cells.

[3] = Solubility of the complex; type: physicochemical; details: 0.2 molar acetate buffer; mixture of acetate buffer and saline or human plasma
Source text: A paramagnetic metal atom has one or more unpaired […], providing a half-integral “spin” quantum number. For metal complex MRI contrast agents, the MRI relaxation efficiency per molecule depends on the nature of the metal in the chelate complex and the size of the metal chelate complex. These contrast agents serve as relaxation sinks for the protons of adjacent water molecules. The metal complex lattice receives the energy from the protons excited by radiofrequency (RF) pulses. […] This facilitates energy transfer, and provides increased imaging efficiency. The complexes of the present invention are soluble in lipids and provide relaxivities in the range 50-150 millimole^−1 second^−1. The gadolinium complexes of this invention, for instance, provide T1 relaxivity values of 80 per millimole per second and T2 values of 93 millimole^−1 second^−1. The complexes of the present invention are thus particularly useful as intra-cellular MRI contrast agents.
as §1

human neutrophils = assay: Kinetics of complex loading into cells; type: cell-based; details: 37° C., neutrophils in donor plasma, 3.7 mg gadolinium
Method: Kinetics of Complex Loading into Cells. For this study, human neutrophils were obtained from a single donor and suspended in 50 microliters of the same donor's plasma in a series of test tubes. The neutrophils were incubated at 37° C. with gadolinium pyrithione complex in a shaker bath. The amount of gadolinium pyrithione used for each test tube provided 3.7 mg of gadolinium, which was added to the test tube in 250 microliters of acetate buffer. After various incubation times, the neutrophil cells were centrifuged, washed with buffer and the amount of neutrophil-bound gadolinium was calculated.

SMILES: [Gd+3].[O-][n+]1ccccc1[S-].[O-][n+]1ccccc1[S-].[O-][n+]1ccccc1[S-] [gadolinium pyrithione complex, gadolinium (tris)pyrithione]
- fraction of complex bound to lipoproteins [1]: majority
- imaging of liver, spleen and bone marrow (reticuloendothelial system) (C3H mouse; 3 and 30 minutes post administration): None of these tissues were imaged
- in vivo stability of the agent (C3H mouse; C3H mouse, intravenous, two doses 27 minutes apart, T1-weighted MRI): stable
- localization in late phase (C3H mouse; thirty minutes after the first administration): bladder
- localization in early phase post-IV injection (C3H mouse; three minutes after the second administration): heart
- stability of formulation on storage [2]: stable
- solubility [3]: soluble
- Gadolinium (% in cells) (human neutrophils; incubation time 05 minutes): 99.21%
- Gadolinium (% in cells) (human neutrophils; incubation time 10 minutes): 99.75%
- Gadolinium (% in cells) (human neutrophils; incubation time 30 minutes): 99.36%
- Gadolinium (% in cells) (human neutrophils; incubation time 45 minutes): 99.11%
